Source: ChEMBL document CHEMBL1773066, “Design, synthesis, biological activity, and ADME properties of pyrazolo[3,4-d]pyrimidines active in hypoxic human leukemia cells: a lead optimization study” (J Med Chem, 2011)
In brackets after ≈: the same amount, converted by molar mass. Activity calls are given as the source filed them. The calls are words filed in the database; no cut-off is given here.

What was measured:
[1] = Apparent permeability of the compound at pH 7.4 by PAMPA assay; format: ADME
[2] = Solubility of the compound in water at pH 7.4; format: physicochemical
[3] = Metabolic stability in human liver microsomes assessed as parent compound remaining after 60 mins by LC-MS analysis; format: ADME, Microsome; conditions: read-out: Stability
[4] = target: T1, Signal transducer and activator of transcription 5A (Homo sapiens) (UniProt P42229); experiment: Inhibition of STAT5 phosphorylation in human MEG-01 cells under normoxic condition after 3 hrs by Western blotting; format: cell-based
T1 sequence (whole entry): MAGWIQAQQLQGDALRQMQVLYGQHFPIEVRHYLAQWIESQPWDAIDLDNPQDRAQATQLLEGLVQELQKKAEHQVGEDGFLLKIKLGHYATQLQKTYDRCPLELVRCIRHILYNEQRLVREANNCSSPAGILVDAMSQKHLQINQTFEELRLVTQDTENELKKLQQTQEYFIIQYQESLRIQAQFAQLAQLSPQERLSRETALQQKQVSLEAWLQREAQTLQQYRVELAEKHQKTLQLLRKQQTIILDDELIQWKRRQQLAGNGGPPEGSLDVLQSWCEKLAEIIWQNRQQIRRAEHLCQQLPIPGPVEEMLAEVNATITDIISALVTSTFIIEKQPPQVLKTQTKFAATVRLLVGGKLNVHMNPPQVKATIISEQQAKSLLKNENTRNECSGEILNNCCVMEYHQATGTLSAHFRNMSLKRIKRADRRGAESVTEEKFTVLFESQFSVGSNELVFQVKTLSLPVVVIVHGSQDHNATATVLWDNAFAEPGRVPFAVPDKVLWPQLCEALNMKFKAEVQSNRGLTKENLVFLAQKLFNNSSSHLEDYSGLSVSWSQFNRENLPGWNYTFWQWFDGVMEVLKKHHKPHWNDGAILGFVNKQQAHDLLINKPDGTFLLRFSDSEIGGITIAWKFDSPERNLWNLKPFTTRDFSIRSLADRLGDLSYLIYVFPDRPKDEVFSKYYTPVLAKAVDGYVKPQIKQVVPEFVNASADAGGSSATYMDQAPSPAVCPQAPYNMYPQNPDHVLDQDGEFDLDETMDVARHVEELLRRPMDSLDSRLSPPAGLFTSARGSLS

[5] = target: T1, Signal transducer and activator of transcription 5A (Homo sapiens); experiment: Inhibition of STAT5 phosphorylation in human MEG-01 cells under hypoxic condition after 3 hrs by Western blotting; format: cell-based
[6] = target: T1, Signal transducer and activator of transcription 5A (Homo sapiens); experiment: Inhibition of STAT5 phosphorylation in human KU812 cells under normoxic condition after 3 hrs by Western blotting; format: cell-based
[7] = target: T1, Signal transducer and activator of transcription 5A (Homo sapiens); experiment: Inhibition of STAT5 phosphorylation in human KU812 cells under hypoxic condition after 3 hrs by Western blotting; format: cell-based
[8] = tested on: K562; experiment: Induction of HIF1alpha expression in human K562 cells under hypoxic condition assessed as HIF1alpha accumulation after 3 hrs by Western blotting; format: functional, cell-based
[9] = target: T1, Signal transducer and activator of transcription 5A (Homo sapiens); experiment: Inhibition of STAT5 phosphorylation in human K562 cells under normoxic condition after 3 hrs by Western blotting; format: cell-based
[10] = target: T1, Signal transducer and activator of transcription 5A (Homo sapiens); experiment: Inhibition of STAT5 phosphorylation in human K562 cells under hypoxic condition after 3 hrs by Western blotting; format: cell-based
[11] = target: T2, Proto-oncogene tyrosine-protein kinase Src (Homo sapiens, UniProt P12931)
T2 sequence (P12931 2-536 limits assumed): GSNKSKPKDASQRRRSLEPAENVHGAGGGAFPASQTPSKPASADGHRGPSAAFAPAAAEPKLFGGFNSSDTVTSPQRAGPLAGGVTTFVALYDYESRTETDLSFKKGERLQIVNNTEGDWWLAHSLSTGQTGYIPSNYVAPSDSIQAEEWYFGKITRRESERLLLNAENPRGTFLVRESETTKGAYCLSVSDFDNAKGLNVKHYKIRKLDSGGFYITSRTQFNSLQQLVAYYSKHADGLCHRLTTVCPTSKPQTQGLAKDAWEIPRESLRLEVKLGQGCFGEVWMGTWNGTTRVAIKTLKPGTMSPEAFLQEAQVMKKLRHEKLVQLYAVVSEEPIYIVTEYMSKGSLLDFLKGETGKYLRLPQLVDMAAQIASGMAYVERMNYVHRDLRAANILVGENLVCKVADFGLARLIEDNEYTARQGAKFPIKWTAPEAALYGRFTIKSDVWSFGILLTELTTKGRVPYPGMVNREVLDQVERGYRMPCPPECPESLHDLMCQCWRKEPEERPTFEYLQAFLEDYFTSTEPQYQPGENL
Description: (§1) Inhibition of human recombinant c-Src by filter-binding assay

[12] = target: Tyrosine-protein kinase ABL1 (Homo sapiens, UniProt P00519)
Chain of Tyrosine-protein kinase ABL1 (P00519 whole entry): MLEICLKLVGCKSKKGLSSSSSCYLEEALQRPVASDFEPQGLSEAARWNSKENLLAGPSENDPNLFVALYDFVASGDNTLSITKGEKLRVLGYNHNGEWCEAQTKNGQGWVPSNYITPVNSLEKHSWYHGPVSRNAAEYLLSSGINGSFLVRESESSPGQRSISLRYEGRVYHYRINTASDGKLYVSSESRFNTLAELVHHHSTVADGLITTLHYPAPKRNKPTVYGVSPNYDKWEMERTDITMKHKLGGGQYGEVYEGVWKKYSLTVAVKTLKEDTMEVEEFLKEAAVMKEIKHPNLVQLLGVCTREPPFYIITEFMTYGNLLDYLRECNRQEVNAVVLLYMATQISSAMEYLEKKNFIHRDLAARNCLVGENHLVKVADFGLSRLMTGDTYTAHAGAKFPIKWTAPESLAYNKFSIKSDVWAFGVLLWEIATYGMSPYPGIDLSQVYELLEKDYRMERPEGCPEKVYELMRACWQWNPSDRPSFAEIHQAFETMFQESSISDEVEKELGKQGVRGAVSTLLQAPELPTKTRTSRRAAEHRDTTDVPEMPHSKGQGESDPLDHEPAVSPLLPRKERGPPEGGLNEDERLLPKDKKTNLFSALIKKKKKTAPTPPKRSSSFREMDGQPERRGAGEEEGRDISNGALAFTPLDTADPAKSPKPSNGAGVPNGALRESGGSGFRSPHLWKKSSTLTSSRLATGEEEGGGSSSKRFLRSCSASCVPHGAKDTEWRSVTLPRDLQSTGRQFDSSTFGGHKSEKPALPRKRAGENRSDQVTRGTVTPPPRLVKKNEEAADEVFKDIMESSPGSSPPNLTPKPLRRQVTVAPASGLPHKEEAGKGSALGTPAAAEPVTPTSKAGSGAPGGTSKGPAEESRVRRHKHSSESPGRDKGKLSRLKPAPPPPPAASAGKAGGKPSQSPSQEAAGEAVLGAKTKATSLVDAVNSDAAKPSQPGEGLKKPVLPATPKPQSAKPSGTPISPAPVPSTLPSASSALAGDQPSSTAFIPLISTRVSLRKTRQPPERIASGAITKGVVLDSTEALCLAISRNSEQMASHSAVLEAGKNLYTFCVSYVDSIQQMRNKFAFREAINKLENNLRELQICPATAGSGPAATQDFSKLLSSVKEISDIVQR
Description: Inhibition of human recombinant c-Abl by filter-binding assay

[13] = tested on: K562; experiment: cells; conditions: Homo sapiens, K562, 72 h
Description: Antiproliferative activity against human K562 cells under normoxic condition after 72 hrs by using CyQUANT GR dye

[14] = tested on: MEG-01; experiment: cells; conditions: Homo sapiens, MEG-01, 72 h
Description: Antiproliferative activity against human MEG01 cells under normoxic condition after 72 hrs by using CyQUANT GR dye

[15] = cells; conditions: Homo sapiens, KU812, 72 h
Description: Antiproliferative activity against human KU812 cells under normoxic condition after 72 hrs by using CyQUANT GR dye

[16] = tested on: K562; experiment: cells; conditions: Homo sapiens, K562, 72 h; remark: listed apart in the source
Description: Antiproliferative activity against human K562 cells under hypoxic condition after 72 hrs by using CyQUANT GR dye

[17] = tested on: MEG-01; experiment: cells; conditions: Homo sapiens, MEG-01, 72 h; remark: listed apart in the source
Description: Antiproliferative activity against human MEG01 cells under hypoxic condition after 72 hrs by using CyQUANT GR dye

[18] = cells; conditions: Homo sapiens, KU812, 72 h; remark: listed apart in the source
Description: Antiproliferative activity against human KU812 cells under hypoxic condition after 72 hrs by using CyQUANT GR dye

[19] = target: T2, Proto-oncogene tyrosine-protein kinase Src; remark: listed apart in the source
Description: as §1

SMILES	Papp [1]	solubility [2]	remaining at 1 h [3]	inhibition [4]	inhibition [5]	inhibition [6]	inhibition [7]	Activity [8]	inhibition [9]	inhibition [10]	Ki [11]	Ki [12]	IC50 [13]	IC50 [14]	IC50 [15]	IC50 [16]	IC50 [17]	IC50 [18]	Ki [19]
CC(Cn1ncc2c(Nc3cccc(Cl)c3)ncnc21)c1ccccc1 (stereo not given)	13.5 ×10⁻⁶ cm/s	< 0.04 µg/mL	75%																
Clc1ccc(C(Cl)Cn2ncc3c(NCc4ccncc4)ncnc32)cc1 (stereo not given)	5.4 ×10⁻⁶ cm/s	12.3 µg/mL (≈ 30.8 µM)	90%	Active	Active	Active	Active	inactive	Active	Active	3.9 µM	0.66 µM	12.7 µM	14.6 µM	10.1 µM	20.4 µM	43.5 µM	> 100 µM	
ClC(Cn1ncc2c(Nc3ccccc3)nc(SCCN3CCOCC3)nc21)c1ccccc1 (stereo not given)	10 ×10⁻⁶ cm/s			Active	Active	Active	Active		Active	Active			2.2 µM			4.7 µM			
ClC(Cn1ncc2c(NCc3ccccc3)nc(SCCN3CCOCC3)nc21)c1ccccc1 (stereo not given)	9.1 ×10⁻⁶ cm/s	1.2 µg/mL (≈ 2.36 µM)	95%	Active	Active	Active	Active				2.9 µM	0.09 µM	3.1 µM	23.7 µM		5.1 µM	19.7 µM		
CS(=O)(=O)c1nc(NCc2ccccc2)c2cnn(CC(Cl)c3ccccc3)c2n1 (stereo not given)													35.8 µM	41.4 µM	36.1 µM				
ClC(Cn1ncc2c(NCCc3ccccc3)nc(SCCN3CCOCC3)nc21)c1ccccc1 (stereo not given)																			Not Active
Clc1ccc(C(Cl)Cn2ncc3c(NCc4ccccn4)ncnc32)cc1 (stereo not given)													30.6 µM	16.6 µM	31.4 µM				
